≈ marks a conversion by molar mass, not a printed value.
How the values were obtained:
[1] = biological target: T1, Group 10 secretory phospholipase A2 (Homo sapiens, UniProt O15496); assay: Inhibition of sPLA2-10 (unknown origin) using 1-palmitoyl-2-oleoyl-sn-glycero-3-phosphocholine as substrate pretreated for 20 mins followed by substrate addition and measured after 60 mins by NEFA based assay
T1 sequence (O15496 whole entry): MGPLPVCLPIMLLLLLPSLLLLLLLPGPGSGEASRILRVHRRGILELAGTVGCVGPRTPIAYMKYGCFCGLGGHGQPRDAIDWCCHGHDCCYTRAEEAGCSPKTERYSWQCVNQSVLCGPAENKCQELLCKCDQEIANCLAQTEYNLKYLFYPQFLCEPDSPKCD

[2] = biological target: T2, Phospholipase A2, membrane associated (Homo sapiens, UniProt P14555); assay: Inhibition of sPLA2-2A (unknown origin) using 1-palmitoyl-2-oleoyl-sn-glycero-3-phosphocholine as substrate pretreated for 20 mins followed by substrate addition and measured after 60 mins by NEFA based assay
T2 sequence (P14555 whole entry): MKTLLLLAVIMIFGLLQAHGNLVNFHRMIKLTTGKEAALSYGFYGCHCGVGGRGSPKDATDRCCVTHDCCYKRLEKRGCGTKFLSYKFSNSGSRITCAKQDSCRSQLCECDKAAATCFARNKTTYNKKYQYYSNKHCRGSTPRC

[3] = biological target: T3, Phospholipase A2 group V (Homo sapiens, UniProt P39877); assay: Inhibition of sPLA2-5 (unknown origin) using 1-palmitoyl-2-oleoyl-sn-glycero-3-phosphocholine as substrate pretreated for 20 mins followed by substrate addition and measured after 60 mins by NEFA based assay
T3 sequence (P39877 whole entry): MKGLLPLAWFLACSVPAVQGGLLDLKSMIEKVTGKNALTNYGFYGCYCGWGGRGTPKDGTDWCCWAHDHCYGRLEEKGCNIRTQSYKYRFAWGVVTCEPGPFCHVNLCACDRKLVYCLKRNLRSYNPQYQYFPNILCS

[4] = biological target: T1, Group 10 secretory phospholipase A2; assay: Inhibition of recombinant human sPLA2-10 using human HDL as substrate pretreated for 20 mins followed by substrate addition and measured after 60 mins by NEFA based assay
[5] = Lipophilicity, log D of compound at pH 7.4; conditions: buffer
[6] = test system: Mus musculus; assay: Unbound clearance in C57Bl/6J mouse administered iv or po; assay type: ADME, organism-based; conditions: in vivo
[7] = biological target: Group 10 secretory phospholipase A2 (Mus musculus, UniProt Q9QXX3); assay: Inhibition of mouse sPLA2-10
[8] = Solubility of the compound in DMSO/HBSS solution at pH 7.4 after 24 hrs by LC-UV/MS analysis; assay type: physicochemical
[9] = Apparent permeability in human Caco2 cells; assay type: ADME, cell-based; conditions: Caco-2
[10] = biological target: Voltage-gated inwardly rectifying potassium channel KCNH2 (Homo sapiens, UniProt Q12809); assay: Inhibition of human ERG expressed in CHO cells by ionworks patch clamp assay; assay type: cell-based
[11] = Half life in human hepatocytes; assay type: ADME, cell-based, Hepatocyte
[12] = biological target: Sodium channel protein type 5 subunit alpha (Homo sapiens, UniProt Q14524); assay: Inhibition of human Nav1.5 expressed in CHO cells by ionworks patch clamp assay; assay type: cell-based
[13] = Inhibition of human Iks expressed in CHO cells by ionworks patch clamp assay; assay type: cell-based
[14] = biological target: A-type voltage-gated potassium channel KCND3 (Homo sapiens, UniProt Q9UK17); assay: Inhibition of human Kv4.3 expressed in CHO cells by ionworks patch clamp assay; assay type: cell-based
[15] = biological target: Voltage-dependent T-type calcium channel subunit alpha-1H (Homo sapiens, UniProt O95180); assay: Inhibition of human Cav3.2 expressed in CHO cells by ionworks patch clamp assay; assay type: cell-based
[16] = biological target: Voltage-dependent L-type calcium channel subunit alpha-1C (Homo sapiens, UniProt Q13936); assay: Inhibition of human Cav1.2 expressed in CHO cells by ionworks patch clamp assay; assay type: cell-based
[17] = Drug metabolism in human liver microsomes in presence of glutathione after 30 mins; assay type: ADME, microsome; conditions: 0.5 h
[18] = biological target: Cytochrome P450 3A4 (Homo sapiens, UniProt P08684); assay: Inhibition of recombinant human CYP3A4; assay type: ADME
[19] = biological target: Cytochrome P450 2C9 (Homo sapiens, UniProt P11712); assay: Inhibition of recombinant human CYP2C9; assay type: ADME
[20] = biological target: Cytochrome P450 2C19 (Homo sapiens, UniProt P33261); assay: Inhibition of recombinant human CYP2C19; assay type: ADME
[21] = biological target: Cytochrome P450 2D6 (Homo sapiens, UniProt P10635); assay: Inhibition of recombinant human CYP2D6; assay type: ADME
[22] = biological target: Cytochrome P450 1A2 (Homo sapiens, UniProt P05177); assay: Inhibition of recombinant human CYP1A2; assay type: ADME
[23] = biological target: Cytochrome P450 2C8 (Homo sapiens, UniProt P10632); assay: Inhibition of recombinant human CYP2C8; assay type: ADME
[24] = Fraction unbound in C57Bl/6J mouse plasma; assay type: ADME, cell-free
[25] = test system: Mus musculus; assay: Unbound clearance in C57Bl/6J mouse at 10 umol/kg, iv or 50 umol/kg, po; assay type: ADME, organism-based; conditions: in vivo
[26] = Oral bioavailability in C57Bl/6J mouse at 50 umol/kg; assay type: ADME, organism-based; conditions: in vivo
[27] = Volume of distribution at steady state in C57Bl/6J mouse at 10 umol/kg, iv or 50 umol/kg, po; assay type: ADME, organism-based; conditions: in vivo, read-out: Vdss
[28] = test system: Mus musculus; assay: Toxicity in ApoE knockout pro-atherogenic western diet-induced Tac mouse carotid artery ligation model of atherosclerosis assessed as reduction in body weight at 75 to 150 umol/kg/day mixed with food measured for 3 weeks; assay type: organism-based; conditions: in vivo, po, 504 h
[29] = test system: Mus musculus; assay: Toxicity in ApoE knockout pro-atherogenic western diet-induced Tac mouse carotid artery ligation model of atherosclerosis assessed as effect on liver enzyme levels at 75 to 150 umol/kg/day mixed with food measured for 3 weeks; assay type: organism-based; conditions: in vivo, po, 504 h
[30] = test system: Mus musculus; assay: Toxicity in ApoE knockout pro-atherogenic western diet-induced Tac mouse carotid artery ligation model of atherosclerosis assessed as histopathological changes in liver at 75 to 150 umol/kg/day mixed with food measured for 3 weeks by hematoxylin-eosin staining based assay; assay type: organism-based; conditions: in vivo, po, 504 h
[31] = test system: Mus musculus; assay: Toxicity in ApoE knockout pro-atherogenic western diet-induced Tac mouse carotid artery ligation model of atherosclerosis assessed as histopathological changes in kidney at 75 to 150 umol/kg/day mixed with food measured for 3 weeks by hematoxylin-eosin staining based assay; assay type: organism-based; conditions: in vivo, po, 504 h
[32] = test system: Mus musculus; assay: Toxicity in ApoE knockout pro-atherogenic western diet-induced Tac mouse carotid artery ligation model of atherosclerosis assessed as histopathological changes in heart at 75 to 150 umol/kg/day mixed with food measured for 3 weeks by hematoxylin-eosin staining based assay; assay type: organism-based; conditions: in vivo, po, 504 h
[33] = test system: Mus musculus; assay: Toxicity in ApoE knockout pro-atherogenic western diet-induced Tac mouse carotid artery ligation model of atherosclerosis assessed as histopathological changes in intestine at 75 to 150 umol/kg/day mixed with food measured for 3 weeks by hematoxylin-eosin staining based assay; assay type: organism-based; conditions: in vivo, po, 504 h
[34] = test system: Mus musculus; assay: Toxicity in ApoE knockout pro-atherogenic western diet-induced Tac mouse carotid artery ligation model of atherosclerosis assessed as histopathological changes in lung at 75 to 150 umol/kg/day mixed with food measured for 3 weeks by hematoxylin-eosin staining based assay; assay type: organism-based; conditions: in vivo, po, 504 h
[35] = test system: Mus musculus; assay: Toxicity in ApoE knockout pro-atherogenic western diet-induced Tac mouse carotid artery ligation model of atherosclerosis assessed as histopathological changes in stomach at 75 to 150 umol/kg/day mixed with food measured for 3 weeks by hematoxylin-eosin staining based assay; assay type: organism-based; conditions: in vivo, po, 504 h
[36] = test system: Mus musculus; assay: Toxicity in ApoE knockout pro-atherogenic western diet-induced Tac mouse carotid artery ligation model of atherosclerosis assessed as histopathological changes in duodenum at 75 to 150 umol/kg/day mixed with food measured for 3 weeks by hematoxylin-eosin staining based assay; assay type: organism-based; conditions: in vivo, po, 504 h
[37] = test system: Mus musculus; assay: Toxicity in ApoE knockout pro-atherogenic western diet-induced Tac mouse carotid artery ligation model of atherosclerosis assessed as histopathological changes in ceacum at 75 to 150 umol/kg/day mixed with food measured for 3 weeks by hematoxylin-eosin staining based assay; assay type: organism-based; conditions: in vivo, po, 504 h
[38] = Ratio of free drug level in ApoE knockout pro-atherogenic western diet-induced Tac mouse at 75 umol/kg measured after 3 weeks to IC50 for recombinant human sPLA2-10 using human HDL as substrate; assay type: ADME; conditions: in vivo, 504 h
[39] = Ratio of free drug level in ApoE knockout pro-atherogenic western diet-induced Tac mouse at 75 umol/kg measured after 1 week to IC50 for recombinant human sPLA2-10 using human HDL as substrate; assay type: ADME; conditions: in vivo, 168 h
[40] = Ratio of free drug level in ApoE knockout pro-atherogenic western diet-induced Tac mouse at 150 umol/kg measured after 1 week to IC90 for recombinant human sPLA2-10 using human HDL as substrate; assay type: ADME; conditions: in vivo, 168 h
[41] = Ratio of free drug level in ApoE knockout pro-atherogenic western diet-induced Tac mouse at 150 umol/kg measured after 3 weeks to IC90 for recombinant human sPLA2-10 using human HDL as substrate; assay type: ADME; conditions: in vivo, 504 h

Voltage-gated inwardly rectifying potassium channel KCNH2, sequence (Q12809 whole entry): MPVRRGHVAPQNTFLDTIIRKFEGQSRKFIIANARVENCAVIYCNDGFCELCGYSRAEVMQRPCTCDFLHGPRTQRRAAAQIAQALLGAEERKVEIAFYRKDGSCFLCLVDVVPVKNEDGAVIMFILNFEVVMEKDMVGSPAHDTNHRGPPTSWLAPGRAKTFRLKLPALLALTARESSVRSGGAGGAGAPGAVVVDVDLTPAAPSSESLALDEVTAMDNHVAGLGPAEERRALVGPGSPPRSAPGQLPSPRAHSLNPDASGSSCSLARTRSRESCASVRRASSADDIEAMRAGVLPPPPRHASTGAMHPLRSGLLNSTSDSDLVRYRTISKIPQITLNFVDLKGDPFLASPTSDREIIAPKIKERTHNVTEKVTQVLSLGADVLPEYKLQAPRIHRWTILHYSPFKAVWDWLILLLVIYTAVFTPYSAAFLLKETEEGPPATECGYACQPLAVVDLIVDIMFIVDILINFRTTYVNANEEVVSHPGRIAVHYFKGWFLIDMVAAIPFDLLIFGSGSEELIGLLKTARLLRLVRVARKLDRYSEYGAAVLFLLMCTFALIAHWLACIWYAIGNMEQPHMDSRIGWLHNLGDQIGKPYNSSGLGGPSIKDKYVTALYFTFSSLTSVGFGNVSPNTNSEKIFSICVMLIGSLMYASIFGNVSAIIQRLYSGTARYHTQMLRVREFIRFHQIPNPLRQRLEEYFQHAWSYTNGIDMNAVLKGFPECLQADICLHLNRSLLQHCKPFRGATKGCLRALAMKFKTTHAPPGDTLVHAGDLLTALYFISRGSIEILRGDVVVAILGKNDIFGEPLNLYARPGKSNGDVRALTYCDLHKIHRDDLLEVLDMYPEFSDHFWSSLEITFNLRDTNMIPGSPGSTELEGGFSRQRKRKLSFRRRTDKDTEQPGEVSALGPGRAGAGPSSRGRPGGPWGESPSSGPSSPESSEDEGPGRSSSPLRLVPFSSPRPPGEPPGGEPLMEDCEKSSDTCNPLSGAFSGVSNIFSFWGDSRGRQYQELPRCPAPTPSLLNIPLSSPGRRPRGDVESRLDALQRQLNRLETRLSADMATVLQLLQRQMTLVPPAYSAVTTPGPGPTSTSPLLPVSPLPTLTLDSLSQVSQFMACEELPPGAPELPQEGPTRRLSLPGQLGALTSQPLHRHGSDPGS
Voltage-dependent L-type calcium channel subunit alpha-1C, sequence (Q13936 whole entry): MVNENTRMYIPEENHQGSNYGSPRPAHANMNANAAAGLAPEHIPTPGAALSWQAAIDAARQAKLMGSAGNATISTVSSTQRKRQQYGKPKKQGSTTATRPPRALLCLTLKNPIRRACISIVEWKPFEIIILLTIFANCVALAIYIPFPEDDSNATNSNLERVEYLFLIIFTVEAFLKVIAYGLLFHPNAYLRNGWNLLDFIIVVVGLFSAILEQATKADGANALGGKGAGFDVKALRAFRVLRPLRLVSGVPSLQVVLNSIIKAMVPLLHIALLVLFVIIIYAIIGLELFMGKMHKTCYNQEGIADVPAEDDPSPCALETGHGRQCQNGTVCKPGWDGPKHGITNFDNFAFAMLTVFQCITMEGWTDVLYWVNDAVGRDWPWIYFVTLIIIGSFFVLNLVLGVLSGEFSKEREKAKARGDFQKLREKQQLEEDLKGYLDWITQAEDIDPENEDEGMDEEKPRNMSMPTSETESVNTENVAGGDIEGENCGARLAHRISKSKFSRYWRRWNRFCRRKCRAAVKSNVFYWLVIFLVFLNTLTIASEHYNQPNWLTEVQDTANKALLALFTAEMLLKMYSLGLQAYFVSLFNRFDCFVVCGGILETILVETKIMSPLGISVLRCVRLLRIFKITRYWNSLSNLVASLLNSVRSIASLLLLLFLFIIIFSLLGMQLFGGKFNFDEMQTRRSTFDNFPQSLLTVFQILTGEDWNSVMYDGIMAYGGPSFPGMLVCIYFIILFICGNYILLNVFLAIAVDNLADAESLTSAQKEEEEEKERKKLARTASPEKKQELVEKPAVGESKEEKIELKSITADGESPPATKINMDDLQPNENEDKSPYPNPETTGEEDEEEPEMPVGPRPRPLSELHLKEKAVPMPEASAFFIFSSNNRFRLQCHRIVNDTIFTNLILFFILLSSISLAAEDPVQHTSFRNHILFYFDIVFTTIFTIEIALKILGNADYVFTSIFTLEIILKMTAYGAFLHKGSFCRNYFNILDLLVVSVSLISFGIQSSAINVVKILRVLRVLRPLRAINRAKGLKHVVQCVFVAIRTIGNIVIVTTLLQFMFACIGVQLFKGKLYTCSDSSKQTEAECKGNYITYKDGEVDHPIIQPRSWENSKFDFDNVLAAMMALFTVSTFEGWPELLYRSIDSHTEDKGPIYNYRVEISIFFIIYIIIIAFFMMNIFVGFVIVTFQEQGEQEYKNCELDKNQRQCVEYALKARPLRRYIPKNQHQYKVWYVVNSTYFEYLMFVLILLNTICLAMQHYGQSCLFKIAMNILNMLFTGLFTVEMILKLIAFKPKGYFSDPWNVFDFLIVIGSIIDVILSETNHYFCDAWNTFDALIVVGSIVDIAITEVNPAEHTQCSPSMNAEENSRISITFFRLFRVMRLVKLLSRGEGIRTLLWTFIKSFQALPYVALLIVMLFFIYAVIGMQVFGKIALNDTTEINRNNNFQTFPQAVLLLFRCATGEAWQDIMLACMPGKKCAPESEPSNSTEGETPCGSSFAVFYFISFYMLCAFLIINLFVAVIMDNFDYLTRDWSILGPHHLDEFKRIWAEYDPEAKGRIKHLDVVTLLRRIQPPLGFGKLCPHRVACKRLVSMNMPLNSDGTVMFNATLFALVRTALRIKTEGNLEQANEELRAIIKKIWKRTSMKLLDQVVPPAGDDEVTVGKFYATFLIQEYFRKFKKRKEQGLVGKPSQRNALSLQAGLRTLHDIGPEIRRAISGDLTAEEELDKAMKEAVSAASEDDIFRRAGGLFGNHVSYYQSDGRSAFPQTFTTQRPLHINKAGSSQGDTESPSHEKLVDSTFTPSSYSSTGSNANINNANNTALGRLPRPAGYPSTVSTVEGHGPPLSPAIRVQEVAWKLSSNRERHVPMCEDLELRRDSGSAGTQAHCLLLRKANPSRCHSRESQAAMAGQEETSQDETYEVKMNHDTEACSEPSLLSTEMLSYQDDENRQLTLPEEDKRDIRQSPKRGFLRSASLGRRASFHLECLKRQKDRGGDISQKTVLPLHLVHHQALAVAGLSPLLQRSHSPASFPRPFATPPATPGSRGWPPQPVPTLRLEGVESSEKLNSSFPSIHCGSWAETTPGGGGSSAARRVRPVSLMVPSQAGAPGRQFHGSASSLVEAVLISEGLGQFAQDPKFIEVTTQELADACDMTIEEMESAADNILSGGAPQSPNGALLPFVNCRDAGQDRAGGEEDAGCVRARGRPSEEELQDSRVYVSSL
Cytochrome P450 2D6, sequence (P10635 whole entry): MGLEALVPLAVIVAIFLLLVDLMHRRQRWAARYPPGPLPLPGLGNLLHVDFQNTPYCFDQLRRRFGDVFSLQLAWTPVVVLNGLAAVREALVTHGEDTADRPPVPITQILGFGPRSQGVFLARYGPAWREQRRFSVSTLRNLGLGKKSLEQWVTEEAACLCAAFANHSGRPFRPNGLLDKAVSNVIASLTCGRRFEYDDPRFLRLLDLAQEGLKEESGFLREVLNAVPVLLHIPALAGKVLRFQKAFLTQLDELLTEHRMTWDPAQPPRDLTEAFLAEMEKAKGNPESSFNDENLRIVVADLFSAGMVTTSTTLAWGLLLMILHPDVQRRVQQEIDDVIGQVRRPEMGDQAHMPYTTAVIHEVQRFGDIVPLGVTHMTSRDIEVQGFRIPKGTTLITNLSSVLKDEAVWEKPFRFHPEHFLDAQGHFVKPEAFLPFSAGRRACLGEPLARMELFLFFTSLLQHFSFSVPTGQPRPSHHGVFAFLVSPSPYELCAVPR
Group 10 secretory phospholipase A2 (Mus musculus, UniProt Q9QXX3), sequence (Q9QXX3 whole entry): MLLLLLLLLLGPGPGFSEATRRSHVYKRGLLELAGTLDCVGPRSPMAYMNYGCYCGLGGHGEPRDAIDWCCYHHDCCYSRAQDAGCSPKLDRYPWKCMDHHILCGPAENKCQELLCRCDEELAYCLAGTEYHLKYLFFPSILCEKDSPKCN
Cytochrome P450 2C9, sequence (P11712 whole entry): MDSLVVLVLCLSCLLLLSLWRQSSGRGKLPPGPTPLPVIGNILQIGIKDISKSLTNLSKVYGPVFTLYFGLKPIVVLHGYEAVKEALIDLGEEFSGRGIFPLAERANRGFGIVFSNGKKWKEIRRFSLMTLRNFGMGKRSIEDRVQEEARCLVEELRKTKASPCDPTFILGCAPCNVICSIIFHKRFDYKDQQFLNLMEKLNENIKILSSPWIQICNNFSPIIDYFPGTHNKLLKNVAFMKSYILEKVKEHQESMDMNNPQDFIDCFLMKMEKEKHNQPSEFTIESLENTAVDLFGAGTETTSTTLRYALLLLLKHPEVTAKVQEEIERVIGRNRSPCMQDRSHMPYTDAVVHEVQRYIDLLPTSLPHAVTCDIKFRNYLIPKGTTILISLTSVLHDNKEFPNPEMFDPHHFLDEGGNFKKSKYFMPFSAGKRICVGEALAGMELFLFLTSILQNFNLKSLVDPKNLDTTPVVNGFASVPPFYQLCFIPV
Cytochrome P450 1A2, sequence (P05177 whole entry): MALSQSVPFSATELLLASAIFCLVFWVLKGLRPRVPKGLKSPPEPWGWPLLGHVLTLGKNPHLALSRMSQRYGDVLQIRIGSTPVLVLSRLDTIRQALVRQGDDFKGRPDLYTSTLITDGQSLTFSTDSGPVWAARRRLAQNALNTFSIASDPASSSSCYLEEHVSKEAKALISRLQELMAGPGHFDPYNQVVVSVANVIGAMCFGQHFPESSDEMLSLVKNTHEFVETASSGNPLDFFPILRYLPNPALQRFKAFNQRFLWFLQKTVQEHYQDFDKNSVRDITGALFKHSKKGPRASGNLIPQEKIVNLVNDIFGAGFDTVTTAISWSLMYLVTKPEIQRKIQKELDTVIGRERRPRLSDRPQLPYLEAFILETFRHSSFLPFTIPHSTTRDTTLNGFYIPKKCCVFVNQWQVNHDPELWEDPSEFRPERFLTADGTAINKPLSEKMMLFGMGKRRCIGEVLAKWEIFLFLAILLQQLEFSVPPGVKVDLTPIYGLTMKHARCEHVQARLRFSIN

`CC(CC(=O)O)c1cccc(-n2c(C(N)=O)cc3ccc(OC(F)(F)F)cc32)n1` (stereo in doubt; (-)-17) showed an IC50 [1] of 0.014 µM, an IC50 [2] of 0.63 µM and an IC50 [3] of 5.5 µM. It also gave an IC50 [4] of 0.042 µM, a logD [5] of 0.9 and a CL free [6] of 306 mL/min/kg. For the same molecule, the IC50 [7] was 0.075 µM, the solubility at 24 h [8] was 100 µM (≈ 40.7 µg/mL) and the Papp [9] was 5.8 ×10⁻⁶ cm/s. It also gave an IC50 [10] greater than 33 µM, a half-life [11] greater than 2.88 h and an IC50 [12] greater than 33 µM. For the same molecule, the IC50 [13] was greater than 33 µM, the IC50 [14] was greater than 33 µM and the IC50 [15] was greater than 33 µM. For the same molecule, the IC50 [16] was greater than 33 µM, the Drug metabolism [17] was “Metabolite_Notdetected” and the IC50 [18] was greater than 20 µM. The IC50 [19] was greater than 20 µM, the IC50 [20] was greater than 20 µM and the IC50 [21] was greater than 20 µM. The IC50 [22] was greater than 20 µM, the IC50 [23] was greater than 20 µM and the fraction unbound [24] was 0.05. The CL free [25] was 306 mL/min/kg, the bioavailability [26] was 95% and the Vd [27] was 0.52 L/kg. The Activity [28] was “Non-Toxic”, the Activity [29] was “Non-Toxic” and the Activity [30] was “Non-Toxic”. The Activity [31] was “Non-Toxic”, the Activity [32] was “Non-Toxic” and the Activity [33] was “Non-Toxic”. For the same molecule, the Activity [34] was “Non-Toxic”, the Activity [35] was “Non-Toxic” and the Activity [36] was “Non-Toxic”. The Activity [37] was “Non-Toxic”, the Ratio [38] was greater than 7 and the Ratio [39] was greater than 7. It also gave a Ratio [40] greater than 7 and a Ratio [41] greater than 7.

From ChEMBL document CHEMBL4196112, “Design of Selective sPLA2-X Inhibitor (-)-2-{2-[Carbamoyl-6-(trifluoromethoxy)-1H-indol-1-yl]pyridine-2-yl}propanoic Acid” (ACS Med Chem Lett, 2018)
